Data as given in PMC6152672, “Cholinesterase Inhibitory Activities of Adamantyl-Based Derivatives and Their Molecular Docking Studies” (Molecules : A Journal of Synthetic Chemistry and Natural …, 2017).
Where two headings read alike, the source gives them in different places.

Legend:
[1] = molecular target: T1, Electric eel acetylcholinesterase (AChE, EC 3.1.1.7) (Electrophorus electricus, UniProt O42275); test: biochemical; type: biochemical; details: for AChE inhibition effect (in words): 2a, 2r: up to a concentration of 1000 µM
T1 construct: purchased Sigma-Aldrich (St. Louis, MO, USA)
T1 sequence (O42275 24-633): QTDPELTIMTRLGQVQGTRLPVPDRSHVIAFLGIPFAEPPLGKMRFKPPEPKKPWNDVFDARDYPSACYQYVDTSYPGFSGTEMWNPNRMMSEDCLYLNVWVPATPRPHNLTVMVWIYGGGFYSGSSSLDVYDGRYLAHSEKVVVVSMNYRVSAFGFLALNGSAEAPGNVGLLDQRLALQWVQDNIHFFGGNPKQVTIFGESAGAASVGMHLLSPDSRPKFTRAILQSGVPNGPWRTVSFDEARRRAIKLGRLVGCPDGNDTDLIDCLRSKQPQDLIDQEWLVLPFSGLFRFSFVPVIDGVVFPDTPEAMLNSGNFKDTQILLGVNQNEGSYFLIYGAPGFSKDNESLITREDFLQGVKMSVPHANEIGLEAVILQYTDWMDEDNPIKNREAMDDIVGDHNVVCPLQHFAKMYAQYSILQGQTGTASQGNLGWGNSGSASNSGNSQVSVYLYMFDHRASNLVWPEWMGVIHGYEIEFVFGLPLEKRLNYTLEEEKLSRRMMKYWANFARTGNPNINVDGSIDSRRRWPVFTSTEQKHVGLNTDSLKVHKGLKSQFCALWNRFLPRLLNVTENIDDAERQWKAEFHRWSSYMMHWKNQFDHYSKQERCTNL
Source text: (§1) Electric eel acetylcholinesterase (AChE, EC 3.1.1.7), equine serum butyrylcholinesterase (BChE, EC 3.1.1.8), 5,5’-dithio-bis-2-nitrobenzoic acid (DTNB), and sodium phosphate dibasic (Na2HPO4) were purchased from Sigma-Aldrich (St. Louis, MO, USA). S-butyrylthiocholine chloride (BTCC) from Sigma-Aldrich (Buchs, Switzerland), acetylthiocholine iodide (ATCI) from Sigma-Aldrich (Dorset, UK) and sodium phosphate monobasic (NaH2PO4) from Sigma-Aldrich (Munich, Germany) were purchased. […] The reagents and solvents for the synthesis work were obtained commercially from Sigma-Aldrich Corporation (St. Louis, MO, USA) and used without any further purification.
(§2) AChE and BChE inhibitory activities of the compounds were determined by Ellman’s assay with minor modifications. […] After a pre-incubation of 15 min at room temperature, 10 µL of 0.50 mM DTNB was added into each well, followed by 10 µL of 0.71 mM acetylthiocholine iodide as the substrate. […] Each test was carried out in triplicate and the results were expressed as an average value. The percentage of inhibition was calculated using the following formula: (1) Percentage of inhibition=S blank -S sample/S blank × 100% where S blank is slope of the blank reaction (without compounds or a reference standard) and S sample is the slope of the sample reaction (with compounds or a reference drug).
(§3) The results of the cholinesterase inhibitory assay were expressed as means ± SD, and were labeled if p < 0.05 using ANOVA of IBM SPSS Statistics for Windows, Version 23.0 (IBM, New York, NY, USA).

[2] = molecular target: T2, equine serum butyrylcholinesterase (BChE, EC 3.1.1.8) (Equus caballus, UniProt P81908); test: biochemical; type: biochemical; details: for BChE inhibition effect (in words): 2a, 2r: up to a concentration of 1000 µM
T2 construct: purchased Sigma-Aldrich (St. Louis, MO, USA); host or cells: equine serum
T2 sequence (P81908 whole entry): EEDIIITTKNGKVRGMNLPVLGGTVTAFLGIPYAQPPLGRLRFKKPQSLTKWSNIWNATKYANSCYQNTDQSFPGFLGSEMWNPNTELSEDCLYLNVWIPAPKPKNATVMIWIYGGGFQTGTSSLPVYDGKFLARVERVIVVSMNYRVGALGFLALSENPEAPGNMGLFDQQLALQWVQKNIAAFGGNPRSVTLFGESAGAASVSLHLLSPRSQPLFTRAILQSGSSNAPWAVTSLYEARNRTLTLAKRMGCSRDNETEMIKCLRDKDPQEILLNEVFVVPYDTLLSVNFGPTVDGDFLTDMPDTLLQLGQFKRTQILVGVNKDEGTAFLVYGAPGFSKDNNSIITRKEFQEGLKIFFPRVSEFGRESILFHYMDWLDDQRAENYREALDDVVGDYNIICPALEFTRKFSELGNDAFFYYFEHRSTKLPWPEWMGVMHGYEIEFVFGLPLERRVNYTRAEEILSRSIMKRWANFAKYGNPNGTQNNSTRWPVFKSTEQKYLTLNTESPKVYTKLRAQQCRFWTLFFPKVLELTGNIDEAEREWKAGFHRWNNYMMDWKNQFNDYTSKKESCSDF
Source text: as §1, §2, §3

[3] = Ellman's assay, pH 8, 15 min pre-incubation, acetylthiocholine iodide substrate, mean ± SD, triplicate, read-out: AChE IC50
[4] = Ellman's assay, pH 8, 15 min pre-incubation, butyrylthiocholine chloride substrate, mean ± SD, triplicate, read-out: BChE IC50

## O=C(OCC(=O)C12CC3CC(CC(C3)C1)C2)c1ccccc1 [Compound 2a, 2-(Adamantan-1-yl)-2-oxoethyl benzoate]
[1]
  AChE inhibition effect (in words): low inhibition effects
[1]; [3]
  IC50: 994 ± 19.4 µM
[2]
  BChE inhibition effect (in words): low inhibition effects
[2]; [4]
  IC50: > 1500 µM

## O=C(OCC(=O)C12CC3CC(CC(C3)C1)C2)c1ccccc1Cl [Compound 2b, 2-(Adamantan-1-yl)-2-oxoethyl 2-chlorobenzoate]
[1]; [3]
  IC50: 361 ± 30 µM
[2]; [4]
  IC50: > 1500 µM

## O=C(OCC(=O)C12CC3CC(CC(C3)C1)C2)c1cccc(Cl)c1 [Compound 2c, 2-(Adamantan-1-yl)-2-oxoethyl 3-chlorobenzoate]
[1]; [3]
  IC50: 280 ± 17.4 µM
[2]; [4]
  IC50: 971 ± 62.5 µM

## O=C(OCC(=O)C12CC3CC(CC(C3)C1)C2)c1ccc(Cl)cc1 [Compound 2d, 2-(Adamantan-1-yl)-2-oxoethyl 4-chlorobenzoate]
[1]; [3]
  IC50: 341 ± 34.7 µM
[2]; [4]
  IC50: 1290 ± 30.1 µM

## O=C(OCC(=O)C12CC3CC(CC(C3)C1)C2)c1ccc(Cl)cc1Cl [Compound 2e, 2-(Adamantan-1-yl)-2-oxoethyl 2,4-dichlorobenzoate]
[1]; [3]
  IC50: 77.1 ± 7.86 µM
[2]; [4]
  IC50: 307 ± 25.1 µM

## Cc1ccccc1C(=O)OCC(=O)C12CC3CC(CC(C3)C1)C2 [Compound 2f, 2-(Adamantan-1-yl)-2-oxoethyl 2-methylbenzoate]
[1]; [3]
  IC50: 175 ± 25.9 µM
[2]; [4]
  IC50: > 1500 µM

## Cc1cccc(C(=O)OCC(=O)C23CC4CC(CC(C4)C2)C3)c1 [Compound 2g, 2-(Adamantan-1-yl)-2-oxoethyl 3-methylbenzoate]
[1]; [3]
  IC50: 191 ± 14.4 µM
[2]; [4]
  IC50: > 1500 µM

## Cc1ccc(C(=O)OCC(=O)C23CC4CC(CC(C4)C2)C3)cc1 [Compound 2h, 2-(Adamantan-1-yl)-2-oxoethyl 4-methylbenzoate]
[1]; [3]
  IC50: > 1500 µM
[2]; [4]
  IC50: > 1500 µM

## COc1ccccc1C(=O)OCC(=O)C12CC3CC(CC(C3)C1)C2 [Compound 2i, 2-(Adamantan-1-yl)-2-oxoethyl 2-methoxybenzoate]
[1]; [3]
  IC50: > 1500 µM
[2]; [4]
  IC50: > 1500 µM

## COc1cccc(C(=O)OCC(=O)C23CC4CC(CC(C4)C2)C3)c1 [Compound 2j, 2-(Adamantan-1-yl)-2-oxoethyl 3-methoxybenzoate]
[1]; [3]
  IC50: 166 ± 19.6 µM
[2]; [4]
  IC50: 223 ± 17.6 µM

## COc1ccc(C(=O)OCC(=O)C23CC4CC(CC(C4)C2)C3)cc1 [Compound 2k, 2-(Adamantan-1-yl)-2-oxoethyl 4-methoxybenzoate]
[1]; [3]
  IC50: > 1500 µM
[2]; [4]
  IC50: > 1500 µM

## O=C(OCC(=O)C12CC3CC(CC(C3)C1)C2)c1ccccc1[N+](=O)[O-] [Compound 2l, 2-(Adamantan-1-yl)-2-oxoethyl 2-nitrobenzoate]
[1]; [3]
  IC50: 689 ± 44.5 µM
[2]; [4]
  IC50: > 1500 µM

## O=C(OCC(=O)C12CC3CC(CC(C3)C1)C2)c1cccc([N+](=O)[O-])c1 [Compound 2m, 2-(Adamantan-1-yl)-2-oxoethyl 3-nitrobenzoate]
[1]; [3]
  IC50: 233 ± 25.9 µM
[2]; [4]
  IC50: > 1500 µM

## O=C(OCC(=O)C12CC3CC(CC(C3)C1)C2)c1ccc([N+](=O)[O-])cc1 [Compound 2n, 2-(Adamantan-1-yl)-2-oxoethyl 4-nitrobenzoate]
[1]; [3]
  IC50: 349 ± 25.2 µM
[2]; [4]
  IC50: 777 ± 33.6 µM

## Nc1ccccc1C(=O)OCC(=O)C12CC3CC(CC(C3)C1)C2 [Compound 2o, 2-(adamantan-1-yl)-2-oxoethyl 2-aminobenzoate]
[1]
  IC50: > 1500 µM
  AChE inhibition effect (in words): inactive
[2]
  IC50: > 1500 µM
  BChE inhibition effect (in words): inactive

## Nc1cccc(C(=O)OCC(=O)C23CC4CC(CC(C4)C2)C3)c1 [Compound 2p, 2-(adamantan-1-yl)-2-oxoethyl 3-aminobenzoate]
[1]
  AChE inhibition effect (in words): inactive
[1]; [3]
  IC50: > 1500 µM
[2]
  BChE inhibition effect (in words): inactive
[2]; [4]
  IC50: > 1500 µM

## Nc1ccc(C(=O)OCC(=O)C23CC4CC(CC(C4)C2)C3)cc1 [Compound 2q, 2-(adamantan-1-yl)-2-oxoethyl 4-aminobenzoate]
[1]
  AChE inhibition effect (in words): inactive
[1]; [3]
  IC50: > 1500 µM
[2]
  BChE inhibition effect (in words): inactive
[2]; [4]
  IC50: > 1500 µM

## O=C(OCC(=O)C12CC3CC(CC(C3)C1)C2)c1ccccn1 [Compound 2r, 2-(Adamantan-1-yl)-2-oxoethyl picolinate]
[1]
  AChE inhibition effect (in words): low inhibition effects
[1]; [3]
  IC50: > 1500 µM
[2]
  BChE inhibition effect (in words): low inhibition effects
[2]; [4]
  IC50: > 1500 µM
